Columns and labels:
OCT1 = tested on: OCT1; set-up: method as in PMID 34884800; details: cited from earlier work
OCT2 = tested on: OCT2; set-up: method as in PMID 34884800; details: cited from earlier work
[1] = substrate: CCC(CO)NCCNC(CC)CO; test: cells, lysate or membranes named; details: other: OCT1, 2 min uptake, this study

Molecule | difference in the inhibition of OCT1 between enantiomers (OCT1) | difference in the inhibition of OCT2 between enantiomers (OCT2) | Km [1] [µM] | Vmax [1] [µmol/min/mg]
CCCC(C(=O)c1ccccc1)N1CCCC1 (stereo not drawn) [α-pyrrolidinovalerophenone] | twofold difference | no difference | – | –
OCT1 (Homo sapiens) (protein) MPTVDDILEQVGESGWFQKQAFLILCLLSAAFAPICVGIVFLGFTPDHHCQSPGVAELSQRCGWSPAEELNYTVPGLGPAGEAFLGQCRRYEVDWNQSALSCVDPLASLATNRSHLPLGPCQDGWVYDTPGSSIVTEFNLVCADSWKLDLFQSCLNAGFLFGSLGVGYFADRFGRKLCLLGTVLVNAVSGVLMAFSPNYMSMLLFRLLQGLVSKGNWMAGYTLITEFVGSGSRRTVAIMYQMAFTVGLVALTGLAYALPHWRWLQLAVSLPTFLFLLYYWCVPESPRWLLSQKRNTEAIKIMDHIAQKNGKLPPADLKMLSLEEDVTEKLSPSFADLFRTPRLRKRTFILMYLWFTDSVLYQGLILHMGATSGNLYLDFLYSALVEIPGAFIALITIDRVGRIYPMAMSNLLAGAACLVMIFISPDLHWLNIIIMCVGRMGITIAIQMICLVNAELYPTFVRNLGVMVCSSLCDIGGIITPFIVFRLREVWQALPLILFAVLGLLAAGVTLLLPETKGVALPETMKDAENLGRKAKPKENTIYLKVQTSEPSGT | – | – | 167 | 0.00235
